Our source for the IC50 values is patent publication US11932624B2, “MDM2 degraders and uses thereof” (Kymera Therapeutics, Inc., priority 2020, dated 2024).

SMILES strings stand for the structures. Bounds are passed on as bounds.

The test system of this assay is RS411 cells. The assay is described as follows: Cell Viability CTG Assay (CellTiter Glo) in RS411 cells. It is filed as cell-based. The note with it: Homo sapiens, RS4-11, 24 h, duration 1 day. As for the experimental part: Example 23. Cell Viability CTG Assay
Day 0: Compounds or DMSO 60 nL were stamped to the cell plate as the platemap. RS411 cells were centrifuged at 800 rpm for 5 min, suspended with culture medium, and counted with Countess (Invitrogen). The cell density was adjusted to the recommend information. 30 μL of cell solution (1000 cells/well) was added to the assay plate as the platemap and 30 uL of media was added to column 2 and column 23 as the platemap. The plate was spun down briefly. The final concentration of the compounds started at 10 μM (3 fold dilution and 11 doses) and final DMSO concentration was 0.2%. The plate was spun down briefly and incubated at 37° C., 5% CO2 for 1-4 days.
30 μL CellTiter Glo reagent was added to each well and the plate was centrifuged at 1000 rpm for 30 sec. The plate was shaken for 1 min and centrifuged at 1000 rpm for 30 sec. The plate was incubated at RT for 10 min to stabilize the luminescent signal and the luminescence was read by EnVision.
The letter codes for IC50 indicate the concentration of compound required to affect 50% of cells: A (<0.05 μM), B (0.05-0.1 μM), C (0.1-0.5 μM), D (0.5-1.0 μM), and E (>1.0 μM).
(In general: Cellular ATP, detected with luciferase, serves as a proxy for viable cell number.)
Consider `Cn1c(=O)n(C2CCC(=O)NC2=O)c2ccc(C#CC3CCN(Cc4ccc(NC(=O)[C@@H]5NC6(CCCCC6)[C@@]6(C(=O)Nc7cc(Cl)ccc76)[C@H]5c5cccc(Cl)c5F)cc4)CC3)cc21` (some centres unmarked) [I-79], for which the 50% inhibitory concentration (IC50) is under 50 nM.
For `CN1[C@@H](C(=O)Nc2ccc(C(=O)N3CCC(C#Cc4ccc5c(c4)n(C)c(=O)n5C4CCC(=O)NC4=O)CC3)cc2)[C@H](c2cccc(Cl)c2F)[C@]2(C(=O)Nc3cc(Cl)ccc32)C12CCCCC2` (some centres unmarked) [I-80], the IC50 is under 50 nM.
Under `CN1[C@@H](C(=O)Nc2ccc(C(=O)NCCCCCc3ccc4c(c3)n(C)c(=O)n4C3CCC(=O)NC3=O)cc2)[C@H](c2cccc(Cl)c2F)[C@]2(C(=O)Nc3cc(Cl)ccc32)C12CCC(C)(C)CC2` (some centres unmarked) [I-81] stands under 50 nM; under `Cn1c(=O)n(C2CCC(=O)NC2=O)c2ccc(C#CCCCNC(=O)[C@H]3CC[C@H](NC(=O)[C@@H]4NC5(CCCCC5)[C@@]5(C(=O)Nc6cc(Cl)ccc65)[C@H]4c4cccc(Cl)c4F)CC3)cc21` (some centres unmarked) [I-82], under 50 nM; under `Cn1c(=O)n(C2CCC(=O)NC2=O)c2ccc(C#CC3CCN(C(=O)[C@H]4CC[C@H](NC(=O)[C@@H]5NC6(CCC(C)(C)CC6)[C@@]6(C(=O)Nc7cc(Cl)ccc76)[C@H]5c5cccc(Cl)c5F)CO4)CC3)cc21` (some centres unmarked) [I-83], under 50 nM.
The figure for `COc1cc2c(cc1OC(C)C)C(c1ccc(Cl)cc1)N(c1ccc(N(C)CC3CCN(CCCCCCc4cccc5c4n(C)c(=O)n5C4CCC(=O)NC4=O)CC3)cc1)C(=O)C2` (centres unmarked) [I-84, 3-[4-[6-[4-[[4-[1-(4-Chlorophenyl)-7-isopropoxy-6-methoxy-3-oxo-1,4-dihydroisoquinolin-2-yl]-N-methylanilino]methyl]-1-piperidyl]hexyl]-3-methyl-2-oxo-benzimidazol-1-yl]piperidine-2,6-dione] is under 50 nM; for `COc1cc2c(cc1OC(C)C)C(c1ccc(Cl)cc1)N(c1ccc(N(C)C[C@H]3CC[C@H](N(C)CCCCCc4ccc5c(c4)n(C)c(=O)n5C4CCC(=O)NC4=O)CC3)cc1)C(=O)C2` (some centres unmarked) [I-85] it is under 50 nM.
On to `COc1cc2c(cc1OC(C)C)C(c1ccc(Cl)cc1)N(c1ccc(N(C)CC3CCN(CCCCCCc4ccc5c(c4)n(C)c(=O)n5C4CCC(=O)NC4=O)CC3)cc1)C(=O)C2` (centres unmarked) [I-86], for which the concentration for half-maximal inhibition (IC50) was under 50 nM.
`COc1cc2c(cc1OC(C)C)C(c1ccc(Cl)cc1)N(c1ccc(N(C)C[C@H]3CC[C@H](N(C)CCCCCc4cccc5c4n(C)c(=O)n5C4CCC(=O)NC4=O)CC3)cc1)C(=O)C2` (some centres unmarked) [I-87]: the IC50 is under 50 nM.
With `Cn1c(=O)n(C2CCC(=O)NC2=O)c2ccc(C#CC3CN(C(=O)[C@H]4C[C@H](NC(=O)[C@@H]5NC6(CCCCC6)[C@@]6(C(=O)Nc7cc(Cl)ccc76)[C@H]5c5cccc(Cl)c5F)C4)C3)cc21` (stereo partly drawn) [I-89, (3′R,4'S,5′R)-6″-chloro-4′-(3-chloro-2-fluorophenyl)-N-((1r,3R)-3-(3-((1-(2,6-dioxopiperidin-3-yl)-3-methyl-2-oxo-2,3-dihydro-1H-benzo[d]imidazol-5-yl)ethynyl)azetidine-1-carbonyl)cyclobutyl)-2″-oxodispiro[cyclohexane-1,2′-pyrrolidine-3′,3″-indoline]-5′-carboxamide], the IC50 was under 50 nM.
`CCCCCC1N(c2ccc(C(=O)O)cc2OC)C(=O)[C@H]2[C@H](c3cccc(Cl)c3F)[C@@](C#N)(c3ccc(Cl)cc3F)[C@H](CC(C)(C)C)N12` (stereo partly drawn) [I-91, 4-[(5S,6R,7S,7aR)-7-(3-chloro-2-fluoro-phenyl)-6-(4-chloro-2-fluoro-phenyl)-6-cyano-5-(2,2-dimethylpropyl)-1-oxo-3-pentyl-3,5,7,7a-tetrahydropyrrolo[1,2-c]imidazol-2-yl]-3-methoxy-benzoic acid]: the IC50 was over 1000 nM.
Molecule `COc1cc2c(cc1OC(C)C)C(c1ccc(Cl)cc1)N(c1ccc(N(C)C[C@H]3CC[C@H](NCC(=O)NCCCCCc4ccc5c(c4)n(C)c(=O)n5C4CCC(=O)NC4=O)CC3)cc1)C(=O)C2` (some centres unmarked) [I-92, 2-[[4-[[4-[1-(4-Chlorophenyl)-7-isopropoxy-6-methoxy-3-oxo-1,4-dihydroisoquinolin-2-yl]-N-methyl-anilino]methyl]cyclohexyl]amino]-N-[5-[1-(2,6-dioxo-3-piperidyl)-3-methyl-2-oxo-benzimidazol-5-yl]pentyl]acetamide] gave an IC50 of under 50 nM.
As to `CN(CCCCCc1ccc2c(c1)n(C)c(=O)n2C1CCC(=O)NC1=O)C[C@H]1CC[C@H](NC(=O)[C@@H]2NC3(CCCCC3)[C@@]3(C(=O)Nc4cc(Cl)ccc43)[C@H]2c2cccc(Cl)c2F)CC1` (some centres unmarked) [I-93], the IC50 was under 50 nM.
The molecule `Cn1c(=O)n(C2CCC(=O)NC2=O)c2ccc(C(=O)CC3CCN(C(=O)[C@H]4CC[C@H](NC(=O)[C@@H]5NC6(CCCCC6)[C@@]6(C(=O)Nc7cc(Cl)ccc76)[C@H]5c5cccc(Cl)c5F)CC4)CC3)cc21` (some centres unmarked) [I-94] yielded a half-inhibitory concentration (IC50) of under 50 nM.
The figure for `CN(C(=O)[C@@H]1NC2(CCCCC2)[C@@]2(C(=O)Nc3cc(Cl)ccc32)[C@H]1c1cccc(Cl)c1F)c1ccc(C(=O)NCCCCCc2ccc3c(c2)n(C)c(=O)n3C2CCC(=O)NC2=O)cc1` (some centres unmarked) [I-96] is over 1000 nM.
The figure for `Cn1c(=O)n(C2CCC(=O)NC2=O)c2ccc(CCCCCNC(=O)c3ccc(NC(=O)[C@@H]4NC5(CCCCC5)[C@@]5(C(=O)Nc6cc(Cl)ccc65)[C@H]4c4cccc(Cl)c4F)cc3)cc21` (some centres unmarked) [I-97] is under 50 nM; for `Cn1c(=O)n(C2CCC(=O)NC2=O)c2ccc(CCCCCNC(=O)[C@@H]3CC[C@@H](NC(=O)[C@@H]4NC5(CCC(C)(C)CC5)[C@@]5(C(=O)Nc6cc(Cl)ccc65)[C@H]4c4cccc(Cl)c4F)CO3)cc21` (some centres unmarked) [I-98] it is under 50 nM; for `CN(CCCCCc1ccc2c(c1)n(C)c(=O)n2C1CCC(=O)NC1=O)Cc1ccc(NC(=O)[C@@H]2NC3(CCCCC3)[C@@]3(C(=O)Nc4cc(Cl)ccc43)[C@H]2c2cccc(Cl)c2F)cc1` (some centres unmarked) [I-99] it is under 50 nM.
On to `Cn1c(=O)n(C2CCC(=O)NC2=O)c2ccc(C#CC3CN(C(=O)[C@H]4C[C@H](NC(=O)[C@@H]5NC6(CCC(C)(C)CC6)[C@@]6(C(=O)Nc7cc(Cl)ccc76)[C@H]5c5cccc(Cl)c5F)C4)C3)cc21` (some centres unmarked) [I-100], for which the IC50 is under 50 nM.
Consider `CN1[C@@H](C(=O)Nc2ccc(C(=O)NCCCCCc3ccc4c(c3)n(C)c(=O)n4C3CCC(=O)NC3=O)cc2)[C@H](c2cccc(Cl)c2F)[C@]2(C(=O)Nc3cc(Cl)ccc32)C12CCCCC2` (some centres unmarked) [I-101], for which the half-inhibitory concentration (IC50) was under 50 nM.
The molecule `Cn1c(=O)n(C2CCC(=O)NC2=O)c2ccc(CCC3CCN(Cc4ccc(NC(=O)[C@@H]5NC6(CCCCC6)[C@@]6(C(=O)Nc7cc(Cl)ccc76)[C@H]5c5cccc(Cl)c5F)cc4)CC3)cc21` (some centres unmarked) [I-102] had a half-inhibitory concentration (IC50) of under 50 nM.
`Cn1c(=O)n(C2CCC(=O)NC2=O)c2cccc(C3CCN(C[C@H]4CC[C@H](NC(=O)[C@@H]5NC6(CCC(C)(C)CC6)[C@@]6(C(=O)Nc7cc(Cl)ccc76)[C@H]5c5cccc(Cl)c5F)CC4)CC3)c21` (some centres unmarked) [I-103] had an IC50 of under 50 nM.
For the molecule `Cn1c(=O)n(C2CCC(=O)NC2=O)c2ccc(CCCCCNC(=O)[C@H]3CC[C@H](N(C)C(=O)[C@@H]4NC5(CCCCC5)[C@@]5(C(=O)Nc6cc(Cl)ccc65)[C@H]4c4cccc(Cl)c4F)CC3)cc21` (some centres unmarked) [I-105], the IC50 was over 1000 nM.
`O=C1CCN(c2cnc3cc(C#CCOC4CCN(C(=O)c5ccc(NC(=O)[C@@H]6NC7(CCCCC7)[C@@]7(C(=O)Nc8cc(Cl)ccc87)[C@H]6c6cccc(Cl)c6F)cc5)CC4)ccn23)C(=O)N1` [I-106]: the IC50 was under 50 nM.
`Cn1c(=O)n(C2CCC(=O)NC2=O)c2cccc(C3CCN(C[C@H]4CC[C@H](NC(=O)[C@@H]5NC6(CCCCC6)[C@@]6(C(=O)Nc7cc(Cl)ccc76)[C@H]5c5cccc(Cl)c5F)CC4)CC3)c21` (some centres unmarked) [I-109] registered an IC50 of under 50 nM.
Molecule `Cn1c(=O)n(C2CCC(=O)NC2=O)c2ccc(C#CCN3CCN(Cc4ccc(NC(=O)[C@@H]5NC6(CCCCC6)[C@@]6(C(=O)Nc7cc(Cl)ccc76)[C@H]5c5cccc(Cl)c5F)cc4)CC3)cc21` (some centres unmarked) [I-110] came in with an IC50 of under 50 nM.
The molecule `Cn1c(=O)n(C2CCC(=O)NC2=O)c2cccc(CN3CCC(OC4CCN(C[C@H]5CC[C@H](NC(=O)[C@@H]6NC7(CCC(C)(C)CC7)[C@@]7(C(=O)Nc8cc(Cl)ccc87)[C@H]6c6cccc(Cl)c6F)CC5)CC4)CC3)c21` (some centres unmarked) [I-111] gave an IC50 of under 50 nM.
Under `Cn1c(=O)n(C2CCC(=O)NC2=O)c2cccc(CCC3CC4(CCN(C[C@H]5CC[C@H](NC(=O)[C@@H]6NC7(CCCCC7)[C@@]7(C(=O)Nc8cc(Cl)ccc87)[C@H]6c6cccc(Cl)c6F)CC5)CC4)C3)c21` (some centres unmarked) [I-112] stands under 50 nM; under `Cn1c(=O)n(C2CCC(=O)NC2=O)c2cccc(CN3CCC(OC4CCN(C[C@H]5CC[C@H](NC(=O)[C@@H]6NC7(CCCCC7)[C@@]7(C(=O)Nc8cc(Cl)ccc87)[C@H]6c6cccc(Cl)c6F)CC5)CC4)CC3)c21` (some centres unmarked) [I-113], under 50 nM; under `Cn1c(=O)n(C2CCC(=O)NC2=O)c2ccc(CCCN3CCN(C[C@H]4CC[C@H](NC(=O)[C@@H]5NC6(CCCCC6)[C@@]6(C(=O)Nc7cc(Cl)ccc76)[C@H]5c5cccc(Cl)c5F)CC4)CC3)cc21` (some centres unmarked) [I-114], under 50 nM.
For `Cn1c(=O)n(C2CCC(=O)NC2=O)c2cccc(C3CCN(Cc4ccc(NC(=O)[C@@H]5NC6(CCCCC6)[C@@]6(C(=O)Nc7cc(Cl)ccc76)[C@H]5c5cccc(Cl)c5F)cc4)CC3)c21` (some centres unmarked) [I-115], the IC50 is under 50 nM.
Consider `Cn1c(=O)n(C2CCC(=O)NC2=O)c2cccc(C#CC3CCN(Cc4ccc(CNC(=O)[C@@H]5NC6(CCCCC6)[C@@]6(C(=O)Nc7cc(Cl)ccc76)[C@H]5c5cccc(Cl)c5F)cc4)CC3)c21` (some centres unmarked) [I-116], for which the IC50 was over 1000 nM.

Broadly, the IC50 is the midpoint of a concentration-inhibition curve.
